Test system: fibroblasts (dermal papilla, connective sheath, dermal)
Experiment: Assaying of sulfated glycosaminoglycans in fibroblast culture (Blyscan)
Assay type: cell-based, human
Settings: 7 days
Experimental: The fibroblasts are cultured in DMEM medium, 10% foetal calf serum (Gibco, Invitrogen), 1 mM MEM pyruvate (Gibco, Invitrogen) and 25 units/ml of penicillin-streptomycin (Gibco, Invitrogen). The dermal papilla fibroblast (P6), connective sheath fibroblast (P6) and dermal fibroblast are then counted using a Coulter Counter Z2 (Beckman Coulter inc., Fullerton, USA) and seeded at 2×10^5 cells per well in a 12-well plate, with the wells containing 1.5 ml of medium alone, which is the “control” condition, or being treated with 3 mM of 1,5-anhydro-6,8-dideoxy-L-glucooctitol. After 7 days, the supernatant is recovered and stored at −80° C. until the GAGs are assayed. […]
The proteins present in the lysate are assayed using the Dc Protein assay kit (Biorad). The amount of glycosaminoglycans is measured in the supernatant and the lysate.
The glycosaminoglycans are assayed using the Blyscan glycosaminoglycan isolation & concentration kit (Biocolor, Newtownabbey, Northern Ireland) and the Blyscan sulfated glycosaminoglycan assay kit. […] Each sample to be measured is mixed with 700 μl of the cetylpyridinium chloride solution in a 1.5 ml centrifuge tube, and then incubated on a rotary mixer thermostated at 37° C., at 250 rpm, for 2 hours. […] The absorbance of the solution at 656 nm is measured using a polystyrene semi-microcuvette on a Biomate 5 spectrometer (Thermo). […]

CC(O)CC1OCC(O)C(O)C1O [1,5-anhydro-6,8-dideoxy-L-glucooctitol]
increase in amount of glycosaminoglycans secreted (relative to control (medium alone), 3 mM in method): up to 7 times
GAG synthesis by the fibroblasts (versus control (medium alone)): increase in GAG synthesis by the fibroblasts, proportional to the concentration

— patent US20100310488A1, “SELECTING/IDENTIFYING AND ADMINISTERING ACTIVE AGENTS USEFUL FOR MODIFYING THE SHAPE OF KERATIN/HAIR FIBERS” (L'OREAL, priority 2007, published 2010)
